Results as given in patent US20170232017A1, “TREATMENT OF CANCER” (Threshold Pharmaceuticals, Inc., priority 2012, published 2017).

Test system: patients with first-line advanced pancreatic cancer
Test: randomized controlled Phase 2b clinical trial of TH-302 in combination with gemcitabine vs gemcitabine alone (NCT01144455)
Method: (§1) The clinical trial was conducted as a multi-center, randomized, controlled, dose-ranging, Phase 2b crossover clinical trial of TH-302 in combination with gemcitabine in patients with first line advanced pancreatic cancer. The primary endpoint of the trial was progression-free survival. The secondary endpoints were overall response rate, overall survival, change in CA 19-9 as well as various other efficacy and safety parameters. Tumor response was evaluated at baseline and every eight weeks using RECIST. Patients for whom monotherapy with gemcitabine is considered standard therapy were eligible for the trial. Patients were randomized equally into one of three cohorts: TH-302 at a dose of 240 mg/m^2 plus gemcitabine, TH-302 at a dose of 340 mg/m^2 plus gemcitabine, or gemcitabine alone. Patients who successfully completed six cycles of treatment without evidence of significant treatment-related toxicity or progressive disease could continue to receive treatment. If a patient experienced cancer progression on gemcitabine alone, the patient could cross over and be randomized into one of the TH-302 plus gemcitabine cohorts. The primary efficacy analysis was performed based upon 149 investigator-assessed PFS events and per protocol pooled the data from the two gemcitabine plus TH-302 dose groups in the comparison to gemcitabine alone.
In a separate Phase 2b trial, TH-302 was administered intravenously for 30 to 60 minutes on days 1, 8 and 15 of a 28 day cycle at either 240 mg/m^2 or 340 mg/m^2. Gemcitabine was dosed according to its package insert on days 1, 8 and 15 of a 28 day cycle. The 214 patient randomized controlled Phase 2b clinical trial compared the efficacy and safety of these two doses (240 mg/m^2 and 340 mg/m^2) of TH-302 in combination with gemcitabine to gemcitabine alone in patients with first-line advanced pancreatic cancer.
as §1, with “CA19-9” for “CA 19-9”, “over” for “over and be randomized”
This example is an update of the open-label, multicenter, randomized, Phase 2b study (NCT01144455) of two dose levels of TH-302 in combination with gemcitabine vs gemcitabine alone. The update was conducted in September 2012 and including a further follow-up of the data provided in Example 2.
Patients were stratified according to their disease stage (unresectable locally advanced vs distant metastases) and randomized as shown in FIG. 4.

Compound: Nc1ccn([C@@H]2O[C@H](CO)[C@@H](O)C2(F)F)c(=O)n1 [gemcitabine]
- response rate (gemcitabine alone arm, primary analysis): 12%
- median progression-free survival (PFS) (gemcitabine alone, primary analysis): 3.6 months
- Median time to CA 19-9 response, months (range) (human, in vivo): 1.8 (0.9-5.6) months
- Patients with AEs, (%): Any rash (human, in vivo): 16%
- Patients with AEs, (%): Pyrexia (human, in vivo): 23%
- Patients with AEs, (%): Stomatitis (human, in vivo): 7%
- Mean CA 19-9 nadir change (patients with baseline > upper limit of normal and at least one post-baseline assessment): −523 U/mL
- CA 19-9 decrease >20%, (%) (percent of patients): 68%
- CA 19-9 decrease >50%, (%) (percent of patients): 52%
- CA 19-9 decrease >90%, (%) (percent of patients): 16%
- 6-month survival rate (update September 2012): 57%
- 12-month survival rate (update September 2012): 26%
- Disease control (CR, PR, plus stable disease) (update September 2012): 67 % of patients
- Grade 3/4 febrile neutropenia (update September 2012): 0 % of patients
- Objective best (unconfirmed) response (CR plus PR) (update September 2012): 10 % of patients
- Treatment-emergent Grade 3/4 neutropenia (update September 2012): 16 % of patients
- Treatment-emergent Grade 3/4 thrombocytopenia (update September 2012): 10%
- median PFS (update September 2012, FIG. 5A): 3.6 months
- Median OS (update September 2012, FIG. 5B): 6.9 months

Compound: Cn1c(COP(=O)(NCCBr)NCCBr)cnc1[N+](=O)[O-] [TH-302, (2-bromoethyl)({[(2-bromoethyl)amino][(2-nitro-3-methylimidazol-4-yl)methoxy]phosphoryl})-amine]
- improvement in median PFS (TH-302 treated groups (combined) vs gemcitabine alone): about 2 months
- Skin and mucosal toxicities related to TH-302 (in combination with gemcitabine): dose dependent but not dose limiting
- median PFS (two groups (combined) that received TH-302 at different doses plus gemcitabine, FIG. 2A): 5.6 months
